Results on 7 cell lines are retold here after the supplement of paper PMC10307832.

What all share (assay): relative viability (nuclei count vs DMSO), 5 days (fraction); higher = more cells survive
Compound in the assay “BI-2536 + Foretinib”: CC[C@@H]1C(=O)N(C)c2cnc(Nc3ccc(C(=O)NC4CCN(C)CC4)cc3OC)nc2N1C1CCCC1 [BI-2536] + COc1cc2c(Oc3ccc(NC(=O)C4(C(=O)Nc5ccc(F)cc5)CC4)cc3F)ccnc2cc1OCCCN1CCOCC1 [Foretinib] (partner 0.25 µM)
Summed up: (§1)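 Each reported value is a median over duplicate plates. It expresses relative viability: treated-well nuclei count divided by vehicle-well nuclei count. Lung cancer cell lines in 1536-well plates were dosed by pin tool a day after seeding, alone with one drug or with a fixed anchor-drug dose plus five library-drug doses (not always all listed) in √10 steps, and nuclei were counted after 5 days.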

Compound in the assay “BI-2536 + Crizotinib”: CC[C@@H]1C(=O)N(C)c2cnc(Nc3ccc(C(=O)NC4CCN(C)CC4)cc3OC)nc2N1C1CCCC1 [BI-2536] + C[C@@H](Oc1cc(-c2cnn(C3CCNCC3)c2)cnc1N)c1c(Cl)ccc(F)c1Cl [Crizotinib] (partner 1 µM)
In a few lines:
as §1

Compound in the assay “NPK76-II-72-1 + Olaparib”: CC1CC(=O)N(C2=CN=C(N=C2N1C3CCCC3)NC4=C(C=C(C=C4)C(=O)NC5CCN(CC5)C)OC)C [NPK76-II-72-1] + O=C(c1cc(Cc2n[nH]c(=O)c3ccccc23)ccc1F)N1CCN(C(=O)C2CC2)CC1 [Olaparib] (partner 8 µM)
Summed up: as §1

Compound in the assay “NPK76-II-72-1 + AZD7762”: CC1CC(=O)N(C2=CN=C(N=C2N1C3CCCC3)NC4=C(C=C(C=C4)C(=O)NC5CCN(CC5)C)OC)C [NPK76-II-72-1] + NC(=O)Nc1cc(-c2cccc(F)c2)sc1C(=O)N[C@H]1CCCNC1 [AZD7762] (partner 0.2 µM)
In a few lines: as §1

With NCI-H1915, the relative viability with BI-2536 + Foretinib (first compound 0.01 µM) came out at 1.13; in the assay with BI-2536 + Foretinib (first compound 0.03162 µM) it was 0.975; with BI-2536 + Foretinib (first compound 0.1 µM), 0.618; with BI-2536 + Foretinib (first compound 0.3162 µM) it was 0.16; with BI-2536 + Foretinib (first compound 1 µM), 0.143; with BI-2536 + Crizotinib (first compound 0.01 µM) it was 0.931. The relative viability with BI-2536 + Crizotinib (first compound 0.03162 µM) worked out at 0.549; in the assay with BI-2536 + Crizotinib (first compound 0.1 µM) it was 0.549; with BI-2536 + Crizotinib (first compound 0.3162 µM), 0.116; with BI-2536 + Crizotinib (first compound 1 µM), 0.108; with NPK76-II-72-1 + Olaparib (first compound 0.01 µM) it was 0.271; with NPK76-II-72-1 + Olaparib (first compound 0.03162 µM), 0.254. The relative viability with NPK76-II-72-1 + Olaparib (first compound 0.1 µM) was determined as 0.262; in the assay with NPK76-II-72-1 + Olaparib (first compound 0.3162 µM), 0.253; in the assay with NPK76-II-72-1 + Olaparib (first compound 1 µM) it was 0.246; in the assay with NPK76-II-72-1 + AZD7762 (first compound 0.01 µM), 0.709; with NPK76-II-72-1 + AZD7762 (first compound 0.03162 µM), 0.751; with NPK76-II-72-1 + AZD7762 (first compound 0.1 µM), 0.665. The relative viability with NPK76-II-72-1 + AZD7762 (first compound 0.3162 µM) was determined as 0.647; in the assay with NPK76-II-72-1 + AZD7762 (first compound 1 µM) it was 0.726.
With NCI-H1944, the relative viability with BI-2536 + Foretinib (first compound 0.01 µM) came to 0.822; in the assay with BI-2536 + Foretinib (first compound 0.03162 µM), 1.09; in the assay with BI-2536 + Foretinib (first compound 0.1 µM), 0.907; in the assay with BI-2536 + Foretinib (first compound 0.3162 µM) it was 0.134; with BI-2536 + Foretinib (first compound 1 µM) it was 0.178; with BI-2536 + Crizotinib (first compound 0.01 µM), 1.14. Further, the relative viability with BI-2536 + Crizotinib (first compound 0.03162 µM) amounted to 1.3; with BI-2536 + Crizotinib (first compound 0.1 µM), 1.21; with BI-2536 + Crizotinib (first compound 0.3162 µM), 0.184; in the assay with BI-2536 + Crizotinib (first compound 1 µM), 0.147; with NPK76-II-72-1 + Olaparib (first compound 0.01 µM), 0.429; with NPK76-II-72-1 + Olaparib (first compound 0.03162 µM) it was 0.438. In addition, the relative viability is 0.409 in the assay with NPK76-II-72-1 + Olaparib (first compound 0.1 µM); 0.43 in the assay with NPK76-II-72-1 + Olaparib (first compound 0.3162 µM); 0.404 with NPK76-II-72-1 + Olaparib (first compound 1 µM); 0.456 with NPK76-II-72-1 + AZD7762 (first compound 0.01 µM); 0.509 in the assay with NPK76-II-72-1 + AZD7762 (first compound 0.03162 µM); 0.779 in the assay with NPK76-II-72-1 + AZD7762 (first compound 0.1 µM). Moreover, the relative viability was 0.572 with NPK76-II-72-1 + AZD7762 (first compound 0.3162 µM) and 0.595 with NPK76-II-72-1 + AZD7762 (first compound 1 µM).
For NCI-H1975, the relative viability in the assay with BI-2536 + Foretinib (first compound 0.01 µM) turned out to be 0.942; with BI-2536 + Foretinib (first compound 0.03162 µM), 0.85; with BI-2536 + Foretinib (first compound 0.1 µM), 0.508; in the assay with BI-2536 + Foretinib (first compound 0.3162 µM), 0.148; with BI-2536 + Foretinib (first compound 1 µM) it was 0.114; with BI-2536 + Crizotinib (first compound 0.01 µM), 1.12. The relative viability was found to be 0.504 with BI-2536 + Crizotinib (first compound 0.03162 µM); 0.595 with BI-2536 + Crizotinib (first compound 0.1 µM); 0.185 with BI-2536 + Crizotinib (first compound 0.3162 µM); 0.166 in the assay with BI-2536 + Crizotinib (first compound 1 µM); 0.769 in the assay with NPK76-II-72-1 + Olaparib (first compound 0.01 µM); 0.841 with NPK76-II-72-1 + Olaparib (first compound 0.03162 µM). Further, the relative viability with NPK76-II-72-1 + Olaparib (first compound 0.1 µM) turned out to be 0.716; in the assay with NPK76-II-72-1 + Olaparib (first compound 0.3162 µM), 0.811; with NPK76-II-72-1 + Olaparib (first compound 1 µM) it was 0.75; with NPK76-II-72-1 + AZD7762 (first compound 0.01 µM) it was 0.727; with NPK76-II-72-1 + AZD7762 (first compound 0.03162 µM), 0.733; with NPK76-II-72-1 + AZD7762 (first compound 0.1 µM), 0.686. The relative viability was 0.694 with NPK76-II-72-1 + AZD7762 (first compound 0.3162 µM) and 0.734 in the assay with NPK76-II-72-1 + AZD7762 (first compound 1 µM).
Take NCI-H1993: the relative viability came out at 0.774 in the assay with BI-2536 + Foretinib (first compound 0.01 µM); 0.828 with BI-2536 + Foretinib (first compound 0.03162 µM); 0.694 in the assay with BI-2536 + Foretinib (first compound 0.1 µM); 0.634 in the assay with BI-2536 + Foretinib (first compound 0.3162 µM); 0.537 with BI-2536 + Foretinib (first compound 1 µM); 0.945 with BI-2536 + Crizotinib (first compound 0.01 µM). In addition, the relative viability was 0.906 with BI-2536 + Crizotinib (first compound 0.03162 µM); 0.621 with BI-2536 + Crizotinib (first compound 0.1 µM); 0.57 with BI-2536 + Crizotinib (first compound 0.3162 µM); 0.693 with BI-2536 + Crizotinib (first compound 1 µM); 0.96 in the assay with NPK76-II-72-1 + Olaparib (first compound 0.01 µM); 1.05 with NPK76-II-72-1 + Olaparib (first compound 0.03162 µM). In addition, the relative viability amounted to 1.24 with NPK76-II-72-1 + Olaparib (first compound 0.1 µM); 1.07 in the assay with NPK76-II-72-1 + Olaparib (first compound 0.3162 µM); 1.29 with NPK76-II-72-1 + Olaparib (first compound 1 µM); 0.739 with NPK76-II-72-1 + AZD7762 (first compound 0.01 µM); 0.706 with NPK76-II-72-1 + AZD7762 (first compound 0.03162 µM); 0.97 with NPK76-II-72-1 + AZD7762 (first compound 0.1 µM). The relative viability in the assay with NPK76-II-72-1 + AZD7762 (first compound 0.3162 µM) is 0.713; with NPK76-II-72-1 + AZD7762 (first compound 1 µM), 0.914.
Take NCI-H2085: the relative viability was 1.02 in the assay with BI-2536 + Foretinib (first compound 0.01 µM); 0.686 with BI-2536 + Foretinib (first compound 0.03162 µM); 0.707 in the assay with BI-2536 + Foretinib (first compound 0.1 µM); 0.199 with BI-2536 + Foretinib (first compound 0.3162 µM); 0.276 in the assay with BI-2536 + Foretinib (first compound 1 µM); 0.895 with BI-2536 + Crizotinib (first compound 0.01 µM). The relative viability in the assay with BI-2536 + Crizotinib (first compound 0.03162 µM) was found to be 0.751; with BI-2536 + Crizotinib (first compound 0.1 µM), 0.578; with BI-2536 + Crizotinib (first compound 0.3162 µM) it was 0.254; in the assay with BI-2536 + Crizotinib (first compound 1 µM), 0.307; with NPK76-II-72-1 + Olaparib (first compound 0.01 µM), 0.718; in the assay with NPK76-II-72-1 + Olaparib (first compound 0.03162 µM), 0.77. Also, the relative viability in the assay with NPK76-II-72-1 + Olaparib (first compound 0.1 µM) was found to be 0.783; with NPK76-II-72-1 + Olaparib (first compound 0.3162 µM) it was 0.726; in the assay with NPK76-II-72-1 + Olaparib (first compound 1 µM), 0.83; in the assay with NPK76-II-72-1 + AZD7762 (first compound 0.01 µM) it was 0.923; with NPK76-II-72-1 + AZD7762 (first compound 0.03162 µM), 1.02; with NPK76-II-72-1 + AZD7762 (first compound 0.1 µM) it was 0.891. Moreover, the relative viability was found to be 1 in the assay with NPK76-II-72-1 + AZD7762 (first compound 0.3162 µM) and 1.16 with NPK76-II-72-1 + AZD7762 (first compound 1 µM).
In the case of NCI-H2087, the relative viability with BI-2536 + Foretinib (first compound 0.01 µM) came to 1.03; with BI-2536 + Foretinib (first compound 0.03162 µM), 1.17; with BI-2536 + Foretinib (first compound 0.1 µM), 0.476; in the assay with BI-2536 + Foretinib (first compound 0.3162 µM) it was 0.133; with BI-2536 + Foretinib (first compound 1 µM), 0.124; with BI-2536 + Crizotinib (first compound 0.01 µM) it was 0.892. For the same cell line, the relative viability with BI-2536 + Crizotinib (first compound 0.03162 µM) amounted to 0.771; with BI-2536 + Crizotinib (first compound 0.1 µM) it was 0.518; with BI-2536 + Crizotinib (first compound 0.3162 µM), 0.169; in the assay with BI-2536 + Crizotinib (first compound 1 µM), 0.139; with NPK76-II-72-1 + Olaparib (first compound 0.01 µM), 0.532; with NPK76-II-72-1 + Olaparib (first compound 0.03162 µM), 0.653. Further, the relative viability was determined as 0.548 with NPK76-II-72-1 + Olaparib (first compound 0.1 µM); 0.672 with NPK76-II-72-1 + Olaparib (first compound 0.3162 µM); 0.626 with NPK76-II-72-1 + Olaparib (first compound 1 µM); 1.06 with NPK76-II-72-1 + AZD7762 (first compound 0.01 µM); 1.32 in the assay with NPK76-II-72-1 + AZD7762 (first compound 0.03162 µM); 1.26 in the assay with NPK76-II-72-1 + AZD7762 (first compound 0.1 µM). In addition, the figures for the relative viability with NPK76-II-72-1 + AZD7762 (first compound 0.3162 µM) and with NPK76-II-72-1 + AZD7762 (first compound 1 µM) were 1.28 and 1.32, respectively.
NCI-H2126: the relative viability in the assay with BI-2536 + Foretinib (first compound 0.01 µM) stood at 1.43; with BI-2536 + Foretinib (first compound 0.03162 µM) it was 1.28; with BI-2536 + Foretinib (first compound 0.1 µM), 1.05; with BI-2536 + Foretinib (first compound 0.3162 µM), 0.309; with BI-2536 + Foretinib (first compound 1 µM), 0.27; in the assay with BI-2536 + Crizotinib (first compound 0.01 µM), 1.04. Besides, the relative viability with BI-2536 + Crizotinib (first compound 0.03162 µM) was determined as 0.85; in the assay with BI-2536 + Crizotinib (first compound 0.1 µM), 0.85; in the assay with BI-2536 + Crizotinib (first compound 0.3162 µM), 0.341; with BI-2536 + Crizotinib (first compound 1 µM) it was 0.253; with NPK76-II-72-1 + Olaparib (first compound 0.01 µM), 0.903; in the assay with NPK76-II-72-1 + Olaparib (first compound 0.03162 µM), 0.897. Further, the relative viability with NPK76-II-72-1 + Olaparib (first compound 0.1 µM) was 0.901; in the assay with NPK76-II-72-1 + Olaparib (first compound 0.3162 µM), 0.855; with NPK76-II-72-1 + Olaparib (first compound 1 µM) it was 0.956; in the assay with NPK76-II-72-1 + AZD7762 (first compound 0.01 µM), 0.95; in the assay with NPK76-II-72-1 + AZD7762 (first compound 0.03162 µM) it was 1.07; with NPK76-II-72-1 + AZD7762 (first compound 0.1 µM), 0.99. The relative viability with NPK76-II-72-1 + AZD7762 (first compound 0.3162 µM) was 0.989; with NPK76-II-72-1 + AZD7762 (first compound 1 µM), 1.01.
